Source: ChEMBL document CHEMBL1137216, “Identification of a new scaffold for opioid receptor antagonism based on the 2-amino-1,1-dimethyl-7-hydroxytetralin pharmacophore” (J Med Chem, 2004)
pKi: −log10 of the molar value.

Tests used:
Mu-type opioid receptor [1] = biological target: T1, Mu-type opioid receptor (Homo sapiens, UniProt P35372); assay: Inhibition of [3H]DAMGO binding to human Mu opioid receptor expressed in CHO cells; assay type: cell-based
[2] = biological target: T2, Kappa-type opioid receptor (Homo sapiens, UniProt P41145); assay: Inhibition of [3H]U-69593 binding to human kappa opioid receptor expressed in CHO cells; assay type: cell-based
T2 sequence (P41145 whole entry): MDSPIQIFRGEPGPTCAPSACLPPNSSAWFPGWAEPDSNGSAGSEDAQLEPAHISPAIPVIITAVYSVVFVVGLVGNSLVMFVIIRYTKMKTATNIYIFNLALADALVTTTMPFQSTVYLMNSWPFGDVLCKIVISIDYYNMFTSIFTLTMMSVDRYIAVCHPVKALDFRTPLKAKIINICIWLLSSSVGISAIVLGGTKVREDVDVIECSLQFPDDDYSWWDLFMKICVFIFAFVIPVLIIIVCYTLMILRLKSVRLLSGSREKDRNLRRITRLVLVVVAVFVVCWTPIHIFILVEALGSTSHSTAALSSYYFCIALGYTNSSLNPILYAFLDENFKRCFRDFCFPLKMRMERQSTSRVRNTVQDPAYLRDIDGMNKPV

[3] = biological target: T3, Delta-type opioid receptor (Homo sapiens, UniProt P41143); assay: Inhibition of [3H]C1-DPDPE binding to human delta opioid receptor expressed in CHO cells; assay type: cell-based
T3 sequence (P41143 whole entry): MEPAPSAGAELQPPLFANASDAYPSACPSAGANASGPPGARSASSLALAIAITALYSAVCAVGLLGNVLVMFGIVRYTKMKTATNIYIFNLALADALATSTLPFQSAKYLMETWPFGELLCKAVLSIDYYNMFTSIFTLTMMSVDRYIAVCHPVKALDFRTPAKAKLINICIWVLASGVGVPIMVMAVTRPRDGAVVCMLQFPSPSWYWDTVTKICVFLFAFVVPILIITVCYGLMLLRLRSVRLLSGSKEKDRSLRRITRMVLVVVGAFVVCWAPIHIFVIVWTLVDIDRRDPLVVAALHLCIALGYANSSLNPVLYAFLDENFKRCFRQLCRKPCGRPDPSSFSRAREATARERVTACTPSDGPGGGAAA

Mu-type opioid receptor [4] = biological target: T1, Mu-type opioid receptor
Description: Antagonist potency towards human mu opioid receptor in [35S]GTP-gamma-S, assay

[5] = biological target: T2, Kappa-type opioid receptor
Description: Antagonist potency towards human kappa opioid receptor in [35S]GTP-gamma-S, assay

[6] = biological target: T3, Delta-type opioid receptor
Description: Antagonist potency towards human delta opioid receptor in [35S]GTP-gamma-S, assay

Mu-type opioid receptor [7] = biological target: T1, Mu-type opioid receptor; remark: listed apart in the source
Description: Agonist potency towards human mu opioid receptor in [35S]GTP-gamma-S, assay

T1 sequence (P35372 whole entry): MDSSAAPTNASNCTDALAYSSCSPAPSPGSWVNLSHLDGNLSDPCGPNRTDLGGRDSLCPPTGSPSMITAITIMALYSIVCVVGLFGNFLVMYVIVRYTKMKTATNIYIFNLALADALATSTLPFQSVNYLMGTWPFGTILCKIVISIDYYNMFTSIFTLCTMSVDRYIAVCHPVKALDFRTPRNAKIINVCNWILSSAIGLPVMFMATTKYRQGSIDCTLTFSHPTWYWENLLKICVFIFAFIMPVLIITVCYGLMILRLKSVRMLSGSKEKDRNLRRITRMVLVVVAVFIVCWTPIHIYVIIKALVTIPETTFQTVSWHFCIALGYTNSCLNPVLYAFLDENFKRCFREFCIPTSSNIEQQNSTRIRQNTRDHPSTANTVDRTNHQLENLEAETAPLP

Structure (SMILES) | pKi (Mu-type opioid receptor [1]) | pKi [2] | pKi [3] | Ke (Mu-type opioid receptor [4]) | Ke [5] | Ke [6] | Ke (Mu-type opioid receptor [7])
CC1(C)c2cc(O)ccc2CCC1NCC1CC1 (configuration not stated) | 6.51 | 6.63 | 5.42 |  |  |  | 
CO[C@H]1Cc2ccc(O)cc2C(C)(C)[C@@H]1NC/C=C/c1ccccc1 | 8.79 | 8.12 | 7.65 | 2.62 nM | 2.12 nM | 26.3 nM | 
CCCN(CCC)C1CCc2ccc(O)cc2C1(C)C (configuration not stated) | 6.32 | 6.26 | 5.57 |  |  |  | 
C=CCN(CC=C)C1CCc2ccc(O)cc2C1(C)C (configuration not stated) | 6.98 | 7.25 | 6.17 |  |  |  | 
CCCNC1CCc2ccc(O)cc2C1(C)C (configuration not stated) | 6.31 | 6.60 | < 5.00 |  |  |  | 
CC1(C)c2cc(O)ccc2CCC1NC/C=C/c1ccccc1 (configuration not stated) | 7.97 | 7.08 | 6.33 | 67.7 nM | 42.7 nM |  | 
CCCN(C)C1CCc2ccc(O)cc2C1(C)C (configuration not stated) | 7.07 | 6.74 | 5.68 |  |  |  | 
CC1(C)c2cc(O)ccc2CCC1N(C/C=C/c1ccccc1)C/C=C/c1ccccc1 (configuration not stated) | 6.57 | 5.90 | < 5.00 |  |  |  | 
C=CCN(C)C1CCc2ccc(O)cc2C1(C)C (configuration not stated) |  | 6.58 | 5.65 |  |  |  | 
Oc1ccc2c3c1O[C@H]1c4[nH]c5c(c4C[C@@]4(O)[C@@H](C2)N(CC2CC2)CC[C@]314)C[C@@]1(O)[C@H]2Cc3ccc(O)c4c3[C@@]1(CCN2CC1CC1)[C@H]5O4 |  |  |  |  | 0.03 nM |  | 
CC1(C)c2cc(O)ccc2CCC1N(CC1CC1)CC1CC1 (configuration not stated) | 6.37 | 5.74 | 5.24 |  |  |  | 
CN(C/C=C/c1ccccc1)C1CCc2ccc(O)cc2C1(C)C (configuration not stated) | 7.40 | 6.68 | 6.23 |  |  |  | 
CO[C@H]1Cc2ccc(O)cc2C(C)(C)[C@@H]1N | 7.76 | 6.83 | 5.61 |  | 49.3 nM |  | 234 nM
CN(CC1CC1)C1CCc2ccc(O)cc2C1(C)C (configuration not stated) | 6.98 | 6.84 | 6.22 |  |  |  | 
CN(C)C1CCc2ccc(O)cc2C1(C)C (configuration not stated) | 6.94 | 6.48 | 5.40 |  |  |  | 
C=CCNC1CCc2ccc(O)cc2C1(C)C (configuration not stated) | 6.69 | 7.20 | 5.23 |  |  |  | 
